Consider three compounds from EP0503203A1, “Novel thrombin inhibitors” (MERRELL DOW PHARMACEUTICALS INC., priority 1991, dated 1992).

The subject of experiment [1] is human plasma. Nature of the experiment: Anticoagulant effect in human plasma, activated partial thromboplastin time (aPTT). It counts as biochemical. An excerpt:
(§1) Anticoagulant data may be represented as follows:

The subject of experiment [2] is human plasma. The experiment is described as follows: Anticoagulant effect in human plasma, thrombin time (TT). It counts as biochemical.
From the text: as §1

In experiment [3] the test system is HUMAN LUNG TRYPTASE
The experiment is described as follows: Inhibition of tryptase, progress curve analysis. It is filed as biochemical. The conditions noted are these: non-linear regression (ENZFITTER). An excerpt: Using standard in vitro methodology for determining inhibitory activity of tryptase (Journal of Biological Chemistry, Vol. 261, June 5, pp. 7372-7379, 1986), the following results have been obtained.

In experiment [4] the test system is rats. Nature of the experiment: FeCl₃-induced thrombosis model in rats. It counts as in vivo. The conditions noted are these: intravenously 10 mg/kg of body weight injection, followed by continuous 1 mg/kg/minute infusion, 4 rats. An excerpt:
In vivo anti-thrombotic effects in rats may also be utilized for evaluation. […] Of course, actual dosage and frequency will vary dependent upon the nature and severity of the condition, age, general health conditions and such other factors well known and appreciated by the skilled attending diagnostician.

As usually defined, the kon is the second-order rate constant of association. A lower kon goes with slower complex formation. `CN[C@H](Cc1ccccc1)C(=O)N1CCC[C@H]1C(=O)NC(CCCNC(=N)N)C(=O)C(F)(F)F` (stereo partly drawn) [D-CH₃Phe-Pro-Arg-CF₃, N-Methyl-D-phenylalanyl-N[4-(aminoiminomethyl)amino-1-(trifluoroacetyl)butyl]-L-proline amide]: in experiment [1], the “ID₂ aPTT (amount required for doubling the clotting time)” value (from here on “ID₂ aPTT”) came to 218 µM. The “ID₂ TT (amount required for doubling the clotting time)” value (shortened to “ID₂ TT”) in experiment [2] amounted to 108 µM. Besides, in experiment [3], the kon is 200 ± 10 M⁻¹ s⁻¹.

For `N=C(N)NCCCC(NC(=O)[C@@H]1CCCN1C(=O)[C@H](N)Cc1ccccc1)C(=O)C(F)(F)C(F)(F)F` (stereo partly drawn) [D-Phe-Pro-Arg-CF₂CF₃, D-phenylalanyl-N-[4-(aminoiminomethyl)amino]-1-(pentafluoropropionylbutyl]-L-prolineamide, 1.5 HF, O.5 CH₃CO₂H, 3H₂O], in experiment [1], the “ID₂ aPTT” value stood at 2 µM. The “ID₂ TT” value in experiment [2] is given as 1 µM. Besides, in experiment [4], the occlusion result is “preventing occlusion in two rats and prolonging occlusion in the other 2 of the 4 rats”. Besides, in experiment [3], the kon amounted to 1200 ± 40 M⁻¹ s⁻¹.

For the compound `N=C(N)NCCCC(NC(=O)[C@@H]1CCCN1C(=O)[C@H](N)Cc1ccccc1)C(=O)C(F)(F)F` (stereo partly drawn) [D-Phe-Pro-Arg-CF₃], the “ID₂ aPTT” value in experiment [1] stood at 148 µM. The “ID₂ TT” value in experiment [2] turned out to be 43 µM. Moreover, in experiment [3], the kon turned out to be 370 ± 40 M⁻¹ s⁻¹.
